Assay results as given in patent US20090012144A1 (priority 2000, published 2009).
Like-named read-outs stand apart in the source and are kept apart here.

Experiments:
Plutella xylostella = test: Plutella test (cabbage leaves, dip); format: in vivo
Experimental: (§1) [table] To produce a suitable preparation of active compound, 1 part by weight of active compound is mixed with the stated amounts of solvent and emulsifier, and the concentrate is diluted with emulsifier-containing water to the desired concentration. Cabbage leaves (Brassica oleracea) are treated by being dipped into the preparation of active compound of the desired concentration and are populated with caterpillars of the diamond back moth (Plutella xylostella) while the leaves are still moist. After the desired period of time, the kill in % is determined. 100% means that all caterpillars have been killed; 0% means that none of the caterpillars have been killed.

[1] = log P determination by HPLC (reversed-phase C 18), EEC Directive 79/831 Annex V.A8; format: physicochemical
Experimental: The log P values given in the tables and Preparation Examples above are determined in accordance with EEC Directive 79/831 Annex V.A8 by HPLC (High Performance Liquid Chromatography) using a reversed-phase column (C 18). Temperature: 43° C. […]
Calibration was carried out using unbranched alkan-2-ones (having 3 to 16 carbon atoms) with known log P values (determination of the log P values by the retention times using linear interpolation between two successive […]).

Spodoptera exigua = Spodoptera exigua test (cabbage leaves, dip); format: in vivo
Experimental: as §1, with “army worm (Spodoptera exigua)” for “diamond back moth (Plutella xylostella)”

Spodoptera frugiperda = Spodoptera frugiperda test (cabbage leaves, dip); format: in vivo
Experimental: as §1, with “army worm (Spodoptera frugiperda)” for “diamond back moth (Plutella xylostella)”

[2] = reversed-phase C18 HPLC column, pH 2.3, HPLC, pH 2.3, 43° C., read-out: log P (pH 2.3)
[3] = HPLC, pH 2.3, 43° C., read-out: log P (pH 2.3)

Fc1cccc(F)c1C1=N[C@@H](c2ccc(-c3ccc(OC(F)(F)F)cc3)cc2)CC1 [drawing 72]
Kill rate in % after 6 d (Plutella xylostella; 0.01 ppm): 100%

Fc1cccc(F)c1C1=N[C@H](c2ccc(-c3ccc(SC(F)(F)F)cc3)cc2)CC1 [drawing 76]
Kill rate in % after 6 d (Plutella xylostella; 1.6 ppm): 5%

C=C(c1ccccc1)N1C(=O)CC[C@@H]1c1ccc(-c2ccc(OC(F)(F)F)cc2)cc1 [XII-1, (5R)-1-(1-Phenylvinyl)-5-[4′-(trifluoromethoxy)-1,1′-biphenyl-4-yl]-2-pyrrolidinone]
chromatographic logP [1, 2]: 4.35

Fc1cccc(F)c1C1=NC(c2ccc(-c3ccc(OC(F)(F)F)cc3)cc2)CC1 (stereo not shown) [drawing 80]
Kill rate in % after 6 d (Spodoptera exigua; 0.04 ppm): 55%

O=C1CC[C@H](c2ccc(-c3ccc(OC(F)(F)F)cc3)cc2)N1[C@H](CO)c1ccccc1 [X-1, (5R)-1-[(1S)-2-Hydroxy-1-phenylethyl]-5-[4′-(trifluoromethoxy)-1,1′-biphenyl-4-yl]-2-pyrrolidinone]
chromatographic logP [1, 2]: 3.8

Fc1cccc(F)c1C1=N[C@@H](c2ccc(-c3ccc(OC(F)(F)F)cc3)cc2)CC1 [drawing 89]
Kill rate in % after 6 d (Spodoptera frugiperda; 0.02 ppm): 100%

CC(C)(C)OC(=O)N1C(=O)CC[C@@H]1c1ccc(-c2ccc(OC(F)(F)F)cc2)cc1 [V-1, tert-butyl (5R)-2-oxo-5-[4′-(trifluoromethoxy)-1,1′-biphenyl-4-yl]-1-pyrrolidine carboxylate]
chromatographic logP [1, 3]: 4.32

COC(=O)CCC(=O)c1ccc(-c2ccc(OC(F)(F)F)cc2)cc1 [VIII-a-1, Methyl-4-oxo-4-[4′-(trifluoromethoxy)-1,1′-biphenyl-4-yl]butanoate]
chromatographic logP [1, 2]: 4.01

CC1(C)OB(c2ccc([C@H]3CCC(c4c(F)cccc4F)=N3)cc2)OC1(C)C [I-b-1, (2R)-5-(2,6-difluorophenyl)-2-[4-(4,4,5,5-tetramethyl-1,3,2-dioxaborolan-2-yl)phenyl]-3,4-dihydro-2H-pyrrole]
chromatographic logP ([1]; reversed-phase C18 HPLC column, pH 7, HPLC, pH 7, read-out: log P (pH 7)): 4.47

O=C1CC[C@H](c2ccc(Br)cc2)N1[C@H](CO)c1ccccc1 [X-2, (5R)-5-(4-Bromophenyl)-1-[(1S)-2-hydroxy-1-phenylethyl]-2-pyrrolidinone]
chromatographic logP [1, 2]: 2.58

CC(C)(C)OC(=O)N[C@H](CCC(=O)c1c(F)cccc1F)c1ccc(-c2ccc(C#N)cc2)cc1 [IV-4]
chromatographic logP [1, 3]: 4.1

Fc1cccc(F)c1C1=N[C@@H](c2ccc(-c3ccc(SC(F)(F)F)cc3)cc2)CC1 [drawing 75]
Kill rate in % after 6 d (Plutella xylostella; 0.0128 ppm): 45%

CC(C)(C)OC(=O)N[C@H](CCC(=O)c1c(F)cccc1F)c1ccc(-c2ccc(OC(F)(F)F)cc2)cc1 [IV-1, tert-butyl (1R)-4-(2,6-difluorophenyl)-4-oxo-1-[4′-(trifluoromethoxy)-1,1′-biphenyl-4-yl]butylcarbamate]
chromatographic logP [1, 3]: 5.18

Fc1cccc(F)c1C1=N[C@H](c2ccc(-c3ccc(OC(F)(F)F)cc3)cc2)CC1 [drawing 90]
Kill rate in % after 6 d (Spodoptera frugiperda; 8 ppm): 0%

Fc1cccc(F)c1C1=NC(c2ccc(-c3ccc(SC(F)(F)F)cc3)cc2)CC1 (stereo not shown) [drawing 91]
Kill rate in % after 6 d (Spodoptera frugiperda; 0.0128 ppm): 20%

O=S(=O)(c1ccc(-c2ccc([C@H]3CCC(c4c(F)cccc4F)=N3)cc2)cc1)C(F)(F)F [I-11, (2R)-5-(2,6-difluorophenyl)-2-{4′-[(trifluoromethyl)sulphonyl]-1,1′-biphenyl-4-yl}-3,4-dihydro-2H-pyrrole]
chromatographic logP [1, 2]: 3.92
chromatographic logP ([1]; reversed-phase C18 HPLC column, pH 2.3, pH not given, read-out: log p/m.p.: log P): 3.92

Fc1cccc(F)c1C1=N[C@H](c2ccc(-c3ccc(OC(F)(F)F)cc3)cc2)CC1 [drawing 82]
Kill rate in % after 6 d (Spodoptera exigua; 8 ppm): 0%

Fc1cccc(F)c1C1=N[C@@H](c2ccc(-c3ccc(SC(F)(F)F)cc3)cc2)CC1 [drawing 92]
Kill rate in % after 6 d (Spodoptera frugiperda; 0.0128 ppm): 65%

C=CCNC(=O)CC[C@H](O)c1ccc(-c2ccc(OC(F)(F)F)cc2)cc1 [XVI-1, (4S)—N-Allyl-4-hydroxy-4-[4′-(trifluoromethoxy)-1,1′-biphenyl-4-yl]butanamide]
chromatographic logP [1, 2]: 2.99

O=C1CC[C@@]2(c3ccc(-c4ccc(OC(F)(F)F)cc4)cc3)OC[C@H](c3ccccc3)N12 [IX-1, (3S,7aS)-3-Phenyl-7a-[4′-(trifluoromethoxy)-1,1′-biphenyl-4-yl]tetrahydropyrrolo-[2,1-b][1,3]oxazol-5(6H)-one]
chromatographic logP [1, 2]: 4.55

O=C1CC[C@H](c2ccc(-c3ccc(OC(F)(F)F)cc3)cc2)N1[C@H](CCl)c1ccccc1 [XI-1, (5R)-1-[(1S)-2-Chloro-1-phenylethyl]-5-[4′-(trifluoromethoxy)-1,1′-biphenyl-4-yl]-2-pyrrolidinone]
chromatographic logP [1, 2]: 4.78

Fc1cccc(F)c1C1=N[C@@H](c2ccc(-c3ccc(SC(F)(F)F)cc3)cc2)CC1 [drawing 83]
Kill rate in % after 6 d (Spodoptera exigua; 1.6 ppm): 100%

Fc1cccc(F)c1C1=NC(c2ccc(-c3ccc(OC(F)(F)F)cc3)cc2)CC1 (stereo not shown) [drawing 71]
Kill rate in % after 6 d (Plutella xylostella; 0.01 ppm): 0%

O=C1CC[C@H](c2ccc(-c3ccc(OC(F)(F)F)cc3)cc2)N1 [VII-1, (5R)-5-[4′-(Trifluoromethoxy)-1,1′-biphenyl-4-yl]-2-pyrrolidinone]
chromatographic logP [1, 2]: 2.95

Fc1cccc(F)c1C1=N[C@@H](c2ccc(Br)cc2)CC1 [I-15, (2R)-2-(4-bromophenyl)-5-(2,6-difluorophenyl)-3,4-dihydro-2H-pyrrole]
chromatographic logP [1, 2]: 2.74

C=C(c1ccccc1)N1C(=O)CC[C@@H]1c1ccc(Br)cc1 [XII-2, (5R)-5-(4-Bromophenyl)-1-(1-phenylvinyl)-2-pyrrolidinone]
chromatographic logP [1, 2]: 3.18

O=C1CC[C@H](c2ccc(Br)cc2)N1 [VII-2, (5R)-5-(4-Bromophenyl)-2-pyrrolidinone]
chromatographic logP [1, 2]: 3.54

Fc1cccc(F)c1C1=NC(c2ccc(-c3ccc(SC(F)(F)F)cc3)cc2)CC1 (stereo not shown) [drawing 74]
Kill rate in % after 6 d (Plutella xylostella; 0.0128 ppm): 10%

C=CCNC(=O)CCC(=O)c1ccc(-c2ccc(OC(F)(F)F)cc2)cc1 [XV-1, N-Allyl-4-oxo-4-[4′-(trifluoromethoxy)-1,1′-biphenyl-4-yl]butanamide]
log P (pH 2.3) ([1]; HPLC, pH 2.3, 43° C.): 3.42
chromatographic logP [1, 2]: 3.34

N#Cc1ccc(-c2ccc([C@H]3CCC(c4c(F)cccc4F)=N3)cc2)cc1 [I-17]
chromatographic logP [1, 2]: 2.85

C=CCN1C(=O)CC[C@@H]1c1ccc(-c2ccc(OC(F)(F)F)cc2)cc1 [XVII-1, (5R)-1-Allyl-5-[4′-(trifluoromethoxy)-1,1′-biphenyl-4-yl]-2-pyrrolidinone]
chromatographic logP [1, 2]: 3.88

CC(C)(C)OC(=O)N1C(=O)CC[C@@H]1c1ccc(-c2ccc(C#N)cc2)cc1 [V-4]
chromatographic logP [1, 2]: 3.02

Fc1cccc(F)c1C1=N[C@H](c2ccc(-c3ccc(OC(F)(F)F)cc3)cc2)CC1 [drawing 73]
Kill rate in % after 6 d (Plutella xylostella; 1.6 ppm): 0%

O=C1CC[C@@]2(c3ccc(Br)cc3)OC[C@H](c3ccccc3)N12 [IX-2, (3S,7aS)-7a-(4-Bromophenyl)-3-phenyltetrahydropyrrolo[2,1-b][1,3],oxazol-5(6H)-one]
log P (pH 2.3) ([1]; HPLC, pH 2.3, 43° C.): log P (pH 2.3) = 3.36 (purity 92.3%)

Fc1cccc(F)c1C1=N[C@@H](c2ccc(-c3ccc(OC(F)(F)F)cc3)cc2)CC1 [drawing 81]
Kill rate in % after 6 d (Spodoptera exigua; 0.04 ppm): 100%

CC(C)(C)OC(=O)N1C(=O)CC[C@@H]1c1ccc(Br)cc1 [V-2, tert-butyl (2R)-2-(4-bromophenyl)-5-oxo-1-pyrrolidinecarboxylate]
chromatographic logP [1, 2]: 3.04

Fc1cccc(F)c1C1=N[C@H](c2ccc(-c3ccc(SC(F)(F)F)cc3)cc2)CC1 [drawing 84]
Kill rate in % after 6 d (Spodoptera exigua; 1.6 ppm): 0%

CC(C)(C)OC(=O)N[C@H](CCC(=O)c1c(F)cccc1F)c1ccc(Br)cc1 [IV-2, tert-butyl (1R)-1-(4-bromophenyl)-4-(2,6-difluorophenyl)-4-oxobutylcarbamate]
chromatographic logP [1, 3]: 4.22

Fc1cccc(F)c1C1=N[C@@H](c2ccc(-c3ccc(OC(F)(F)F)cc3)cc2)CC1 [I-3, (2R)-5-(2,6-difluorophenyl)-2-[4′-(trifluoromethoxy)-1,1′-biphenyl-4-yl]-3,4-dihydro-2H-pyrrole]
chromatographic logP [1, 2]: 4.08

Oc1ccc(-c2ccc([C@H]3CCC(c4c(F)cccc4F)=N3)cc2)cc1 [I-9]
chromatographic logP [1, 3]: 1.93

O=C1CC[C@H](c2ccc(Br)cc2)N1[C@H](CCl)c1ccccc1 [XI-2, (5R)-5-(4-Bromophenyl)-1-[(1S)-2-chloro-1-phenylethyl]-2-pyrrolidinone]
chromatographic logP [1, 2]: 3.61

Fc1cccc(F)c1C1=N[C@H](c2ccc(-c3ccc(OC(F)(F)C(F)F)cc3)cc2)CC1
Kill rate in % after 6 d (Spodoptera exigua; 1.6 ppm): 0%

Fc1cccc(F)c1C1=NC(c2ccc(-c3ccc(OC(F)(F)F)cc3)cc2)CC1 (stereo not shown) [drawing 88]
Kill rate in % after 6 d (Spodoptera frugiperda; 0.02 ppm): 25%

Fc1cccc(F)c1C1=N[C@H](c2ccc(-c3ccc(SC(F)(F)F)cc3)cc2)CC1 [drawing 93]
Kill rate in % after 6 d (Spodoptera frugiperda; 1.6 ppm): 10%
